Holding throughout (format): cell-based
In assay [1] the target is T1, human EAAT3 (Homo sapiens, UniProt P43005).
T1 construct: expressed in transfected cells
T1 sequence (P43005 1-524): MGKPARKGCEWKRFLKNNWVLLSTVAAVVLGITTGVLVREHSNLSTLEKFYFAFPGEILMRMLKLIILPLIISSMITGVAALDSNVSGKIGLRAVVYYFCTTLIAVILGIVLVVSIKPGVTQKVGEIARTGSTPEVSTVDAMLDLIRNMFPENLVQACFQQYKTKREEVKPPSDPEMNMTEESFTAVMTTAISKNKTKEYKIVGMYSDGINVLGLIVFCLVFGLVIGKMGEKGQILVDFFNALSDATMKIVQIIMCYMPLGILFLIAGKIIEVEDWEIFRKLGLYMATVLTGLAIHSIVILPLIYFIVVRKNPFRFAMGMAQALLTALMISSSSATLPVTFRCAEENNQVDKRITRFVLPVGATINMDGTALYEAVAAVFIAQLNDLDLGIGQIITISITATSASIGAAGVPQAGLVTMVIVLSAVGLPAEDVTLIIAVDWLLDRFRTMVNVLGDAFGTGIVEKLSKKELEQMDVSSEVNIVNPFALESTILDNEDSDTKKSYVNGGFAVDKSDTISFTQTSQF
The assay can be described thus: [3H]-D-aspartate uptake assay at HEK293 cells stably expressing human EAAT3. From the text: (§1) In total, […] piperazine analogs 2.1-2.40 and 3.1-3.12 were characterized pharmacologically at stable HEK293 cells expressing human EAAT1-3 in a [^3H]-D-aspartate uptake assay, (Jensen & Bräuner-Osborne [2004]) and the results are summarized in Table 1 and Table 2. […] Usually, such findings would lead to the conclusion that the bicyclo-[2.2.1]-heptanyl group occupies a promiscuous hydrophobic pocket, which could be optimized for increased potency. However, upon increasing or decreasing the hydrophobic bulk and/or flexibility, a clear drop in potency was observed (analogs 2.1-2.17, Table 1). […] These findings could open up for the hypothesis that the pocket is indeed not hydrophobic but instead hydrophilic in nature. Upon binding of the hydrophobic alkane group, water molecules are forced out and ligand binding is entropically driven rather than enthalpically. Thus analogs 2.18-2.31, which comprise a hydrophobic group, could be potential inhibitors.
(§2) Analogs 2.22-2.31, 2.36-2.40, 3.3, 3.4, 3.6 and 3.12 were obtained as 5 mg portions pre-dissolved in DMSO from ChemBridge corporation and used directly in the [3H]-Asp-uptake assay.

For assay [2], the target named is T2, human EAAT2 (Homo sapiens, UniProt P43004).
T2 construct: expressed in transfected cells
The assay can be described thus: [3H]-D-aspartate uptake assay at HEK293 cells stably expressing human EAAT2.
Source text: as §1, §2

In assay [3] the target is T3, human EAAT1 (Homo sapiens, UniProt P43003).
T3 construct: expressed in transfected cells
The assay can be described thus: [3H]-D-aspartate uptake assay at HEK293 cells stably expressing human EAAT1.
Source text: as §1, §2

For assay [4], the system named is human EAAT1-3. The assay can be described thus: [3H]-D-aspartate uptake assay, statements made for EAAT1-3 together. Particulars: HEK293 cells expressing human EAAT1-3, [3H]-D-aspartate uptake.
Source text: as §1, §2

Setting [5] is: [3H]-D-aspartate uptake, HEK293 cells stably expressing human EAAT3, analogs 1 and 2.1-2.40 (Table 1), read-out: EAAT3 IC50.
Where [6] appears, read: [3H]-D-aspartate uptake, HEK293 cells stably expressing human EAAT2, analogs 1 and 2.1-2.40 (Table 1), read-out: EAAT2 IC50.
The mark [7] stands for this setting: [3H]-D-aspartate uptake, HEK293 cells stably expressing human EAAT1, analogs 1 and 2.1-2.40 (Table 1), read-out: EAAT1 IC50.
Setting [8] is: D-aspartate uptake, HEK293 cells stably expressing human EAAT3, analogs 3.1-3.12 (Table 2), read-out: EAAT3 IC50.
Where [9] appears, read: D-aspartate uptake, HEK293 cells stably expressing human EAAT2, analogs 3.1-3.12 (Table 2), read-out: EAAT2 IC50.
[10] abbreviates: D-aspartate uptake, HEK293 cells stably expressing human EAAT1, analogs 3.1-3.12 (Table 2), read-out: EAAT1 IC50.

Each structure is given as a SMILES string. Where two headings read alike, the source gives them in different places.

T3 sequence (P43003 whole entry): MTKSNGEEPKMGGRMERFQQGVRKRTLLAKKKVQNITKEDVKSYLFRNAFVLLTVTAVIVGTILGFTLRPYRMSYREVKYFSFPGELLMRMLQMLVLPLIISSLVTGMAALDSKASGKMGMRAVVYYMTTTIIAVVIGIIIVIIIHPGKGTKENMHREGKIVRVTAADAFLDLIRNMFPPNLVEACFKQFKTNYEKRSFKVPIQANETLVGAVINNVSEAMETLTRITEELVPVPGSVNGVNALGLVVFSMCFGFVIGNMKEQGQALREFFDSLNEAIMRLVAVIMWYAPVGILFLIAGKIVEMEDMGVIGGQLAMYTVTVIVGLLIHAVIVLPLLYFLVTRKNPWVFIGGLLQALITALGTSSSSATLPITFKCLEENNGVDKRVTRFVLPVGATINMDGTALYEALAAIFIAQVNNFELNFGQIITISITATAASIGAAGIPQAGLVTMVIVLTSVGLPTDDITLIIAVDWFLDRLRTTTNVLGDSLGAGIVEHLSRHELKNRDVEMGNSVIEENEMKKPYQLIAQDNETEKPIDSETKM
T2 sequence (P43004 whole entry): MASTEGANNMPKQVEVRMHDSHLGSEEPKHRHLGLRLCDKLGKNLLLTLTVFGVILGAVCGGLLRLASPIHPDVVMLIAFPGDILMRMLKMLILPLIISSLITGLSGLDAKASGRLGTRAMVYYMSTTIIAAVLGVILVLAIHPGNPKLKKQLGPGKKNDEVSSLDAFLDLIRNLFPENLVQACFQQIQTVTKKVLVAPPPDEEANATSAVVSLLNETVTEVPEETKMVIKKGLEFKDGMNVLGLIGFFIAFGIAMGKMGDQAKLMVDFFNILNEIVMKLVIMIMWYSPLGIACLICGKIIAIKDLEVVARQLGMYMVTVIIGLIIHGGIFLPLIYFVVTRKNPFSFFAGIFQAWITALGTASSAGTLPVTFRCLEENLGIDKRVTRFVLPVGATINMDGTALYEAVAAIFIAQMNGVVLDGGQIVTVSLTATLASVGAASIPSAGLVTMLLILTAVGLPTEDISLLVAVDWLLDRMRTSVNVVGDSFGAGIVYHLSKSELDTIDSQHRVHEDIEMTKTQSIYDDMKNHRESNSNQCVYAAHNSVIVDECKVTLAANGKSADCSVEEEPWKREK

In the case of `FC(F)(F)c1cccc(N2CCN(CC3CC4CCC3C4)CC2)c1` (mixture of isomers) [(±)-endo-exo-2.34, (±)-endo-exo-Bicyclo[2.2.1]heptan-2-ylmethyl)-4-(3-(trifluoromethyl)phenyl)piperazine], the IC50 in assay [1] (setting [5]), in assay [2] (setting [6]) and in assay [3] (setting [7]) was above 300 µM throughout.

As for `O=C(C1CC2CCC1C2)N1CCN(c2cccc(C(F)(F)F)c2)CC1` (mixture of isomers) [(±)-exo-1], in assay [4], the “inhibitory activity at EAAT1-3 (in words)” value is “IC50 values at the three transporters in the mid-micromolar range”. Further, the IC50 in assay [2] (setting [6]) is 40 µM; in assay [2] (value in brackets, Table 1, read-out: EAAT2 pIC50 ± S.E.M. (converted)), 36.3 µM; in assay [3] (setting [7]), 10 µM; in assay [3] (value in brackets, Table 1, read-out: EAAT1 pIC50 ± S.E.M. (converted)), 9.33 µM.

In the case of `O=C(C1CC2CCC1C2)N1CCN(c2cccc(C(F)(F)F)c2)CC1` (racemic) [(±)-endo-exo-1, (±)-endo-exo-Bicyclo[2.2.1]heptan-2-yl(4-(3-(trifluoromethyl)phenyl)piperazin-1-yl)methanone], the IC50 in assay [1] (setting [5]) was found to be 14 µM; in assay [2] (setting [6]), 42 µM; in assay [3] (setting [7]), 14 µM. Moreover, in assay [1] (value in brackets, Table 1), the “EAAT3 pIC50 ± S.E.M.” value was found to be 4.94 ± 0.16. Also, the “EAAT2 pIC50 ± S.E.M.” value in assay [2] (value in brackets, Table 1) stood at 4.42 ± 0.11. Further, the “EAAT1 pIC50 ± S.E.M.” value in assay [3] (value in brackets, Table 1) worked out at 4.87 ± 0.08.

For `O=C(C1CC2CCC1C2)N1CCN(c2cccc(Cl)c2)CC1` (racemic) [(±)-endo-exo-3.7, (±)-endo-exo-Bicyclo[2.2.1]heptan-2-yl(4-(3-chlorophenyl)piperazin-1-yl)methanone], the figures for the IC50 in assay [1] (setting [8]), in assay [2] (setting [9]) and in assay [3] (setting [10]) were above 300 µM, around 300 µM and around 300 µM, respectively.

`N#Cc1cccc(N2CCN(C(=O)C3CC4CCC3C4)CC2)c1` (racemic) [(±)-endo-exo-3.9, 3-(4-(bicyclo[2.2.1]heptane-2-carbonyl)piperazin-1-yl)benzonitrile]: the IC50 in assay [1] (setting [8]), in assay [2] (setting [9]) and in assay [3] (setting [10]) was above 300 µM in each case.

In the case of `COc1cccc(N2CCN(C(=O)C3CC4CCC3C4)CC2)c1` (racemic) [(±)-endo-exo-3.10, (±)-endo-exo-Bicyclo[2.2.1]heptan-2-yl(4-(3-methoxyphenyl)piperazin-1-yl)methanone], the IC50 in assay [1] (setting [8]), in assay [2] (setting [9]) and in assay [3] (setting [10]) was above 300 µM throughout.

With `O=C(C1CC2CCC1C2)N1CCN(c2ccc(F)cc2F)CC1` (racemic) [(±)-endo-exo-3.11, (±)-endo-exo-Bicyclo[2.2.1]heptan-2-yl(4-(2,4-difluorophenyl)piperazin-1-yl)methanone], the IC50 in assay [1] (setting [8]), in assay [2] (setting [9]) and in assay [3] (setting [10]) was above 300 µM throughout.

As to `O=C(C1CC2CCC1CC2)N1CCN(c2cccc(C(F)(F)F)c2)CC1` (centres unmarked) [2.1, Bicyclo[2.2.2]octan-2-yl(4-(3-(trifluoromethyl)phenyl)piperazin-1-yl)methanone], the IC50 in assay [1] (setting [5]), in assay [2] (setting [6]) and in assay [3] (setting [7]) was above 300 µM each time.

With `O=C(N1CCN(c2cccc(C(F)(F)F)c2)CC1)C12CC3CC(CC(C3)C1)C2` [2.2, Adamantan-1-yl(4-(3-(trifluoromethyl)phenyl)piperazin-1-yl)methanone], the IC50 in assay [1], in assay [2] and in assay [3] was above 300 µM each time.

Turning to `O=C(C1CCCC1)N1CCN(c2cccc(C(F)(F)F)c2)CC1` [2.4, Cyclopentyl(4-(3-(trifluoromethyl)phenyl)piperazin-1-yl)methanone], the IC50 in assay [1], in assay [2] and in assay [3] was above 300 µM throughout.

For `O=C(C1CC1)N1CCN(c2cccc(C(F)(F)F)c2)CC1` [2.5, Cyclopropyl(4-(3-(trifluoromethyl)phenyl)piperazin-1-yl)methanone], the IC50 in assay [1] (setting [5]), in assay [2] (setting [6]) and in assay [3] (setting [7]) was above 300 µM in each case.

As to `CC(C)(C)C(=O)N1CCN(c2cccc(C(F)(F)F)c2)CC1` [2.6, 2,2-Dimethyl-1-(4-(3-(trifluoromethyl)phenyl)piperazin-1-yl)propan-1-one], the values for the IC50 in assay [1], in assay [2] and in assay [3] were above 300 µM, above 300 µM and above 1000 µM, respectively.

Take `CC(=O)N1CCN(c2cccc(C(F)(F)F)c2)CC1` [2.7, 1-(4-(3-(Trifluoromethyl)phenyl)piperazin-1-yl)ethanone]: the IC50 in assay [1] (setting [5]) is above 100 µM; in assay [2] (setting [6]) it was above 100 µM; in assay [3] (setting [7]), above 1000 µM.

Turning to `CC(C)CC(=O)N1CCN(c2cccc(C(F)(F)F)c2)CC1` [2.8, 3-Methyl-1-(4-(3-(trifluoromethyl)phenyl)piperazin-1-yl)butan-1-one], the IC50 in assay [1] (setting [5]), in assay [2] (setting [6]) and in assay [3] (setting [7]) was above 300 µM in each case.

As for `CC(C)(C)CC(=O)N1CCN(c2cccc(C(F)(F)F)c2)CC1` [2.9, 3,3-Dimethyl-1-(4-(3-(trifluoromethyl)phenyl)piperazin-1-yl)butan-1-one], the IC50 in assay [1] (setting [5]), in assay [2] (setting [6]) and in assay [3] (setting [7]) was above 300 µM each time.

On to `CC(C)CCC(=O)N1CCN(c2cccc(C(F)(F)F)c2)CC1` [2.10, 4-Methyl-1-(4-(3-(trifluoromethyl)phenyl)piperazin-1-yl)pentan-1-one], for which the IC50 in assay [1] (setting [5]), in assay [2] (setting [6]) and in assay [3] (setting [7]) was above 300 µM in each case.

With `O=C(c1cccc(Oc2ccccc2)c1)N1CCN(c2cccc(C(F)(F)F)c2)CC1` [2.13, (3-Phenoxyphenyl)(4-(3-(trifluoromethyl)phenyl)piperazin-1-yl)methanone], the IC50 in assay [1] (setting [5]), in assay [2] (setting [6]) and in assay [3] (setting [7]) was above 300 µM in each case.

Take `O=C(c1cccc2ccccc12)N1CCN(c2cccc(C(F)(F)F)c2)CC1` [2.15, Naphthalen-1-yl(4-(3-(trifluoromethyl)phenyl)piperazin-1-yl)methanone]: the IC50 in assay [1], in assay [2] and in assay [3] was above 300 µM throughout.

As to `O=C(c1cccs1)N1CCN(c2cccc(C(F)(F)F)c2)CC1` [2.16, Thiophen-2-yl(4-(3-(trifluoromethyl)phenyl)piperazin-1-yl)methanone], the IC50 in assay [1], in assay [2] and in assay [3] was above 100 µM each time.

As to `O=C(Cc1ccccc1)N1CCN(c2cccc(C(F)(F)F)c2)CC1` [2.17, 1-(4-(3-(Trifluoromethyl)phenyl)piperazin-1-yl)-2-phenylethanone], the IC50 is above 1000 µM in assay [1], above 300 µM in assay [2] and above 300 µM in assay [3].

Turning to `Nc1ccc(C(=O)N2CCN(c3cccc(C(F)(F)F)c3)CC2)cc1` [2.18, 4-Aminophenyl-(4-(3-(trifluoromethyl)phenyl)piperazin-1-yl)methanone], the IC50 in assay [1], in assay [2] and in assay [3] was above 300 µM each time.

On to `Nc1cccc(C(=O)N2CCN(c3cccc(C(F)(F)F)c3)CC2)c1` [2.19, 3-Aminophenyl-(4-(3-(trifluoromethyl)phenyl)piperazin-1-yl)methanone], for which the IC50 in assay [1], in assay [2] and in assay [3] was above 300 µM throughout.

With `NCC(=O)N1CCN(c2cccc(C(F)(F)F)c2)CC1` [2.20, 2-Amino-1-(4-(3-(trifluoromethyl)phenyl)piperazin-1-yl)ethanone], the IC50 in assay [1], in assay [2] and in assay [3] was above 300 µM throughout.

Consider `FC(F)(F)c1cccc(N2CCN(Cc3ccccc3)CC2)c1` [2.35, 1-Benzyl-4-(3-(trifluoromethyl)phenyl)piperazine], for which the IC50 in assay [1] is above 1000 µM; in assay [2], above 300 µM; in assay [3] it was above 300 µM.

The values above are taken from article PMC4225009, “Structure-activity-relationship study of N-acyl-N-phenylpiperazines as potential inhibitors of the Excitatory Amino Acid Transporters (EAATs): improving the potency of a micromolar screening Hit is not truism” (SpringerPlus, 2013).
